Experimental data published in PubChem BioAssay (NCI).
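48-hour exposure; five concentrations; linearly interpolated endpoints. The concentration for 50% growth inhibition is given as GI50. TGI: total growth inhibition.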

Legend:
Experiment in all cases: growth of human tumour cells (NCI), 48 h
[1] = system: M14 melanoma
[2] = system: SR leukemia
[3] = system: CCRF-CEM leukemia
[4] = system: A549 NSCLC
[5] = system: EKVX NSCLC
[6] = system: SK-MEL-5 melanoma
[7] = system: SW-620 colon
[8] = system: SNB-75 CNS
[9] = system: HOP-92 NSCLC
[10] = system: UACC-62 melanoma
[11] = system: NCI-H460 lung
[12] = system: K-562 leukemia
[13] = system: SN12C renal
[14] = system: BT-549 breast
[15] = system: HCC-2998 colon
[16] = system: OVCAR-8 ovarian
[17] = system: ACHN renal
[18] = system: SF-295 CNS
[19] = system: LOX IMVI melanoma
[20] = system: SK-OV-3 ovarian
[21] = system: SF-539 CNS
[22] = system: HCT-15 colon
[23] = system: HS 578T breast
[24] = system: SK-MEL-28 melanoma
[25] = system: MALME-3M melanoma
[26] = system: T-47D breast
[27] = system: TK-10 renal
[28] = system: RPMI-8226 leukemia
[29] = system: RXF 393 renal
[30] = system: COLO 205 colon
[31] = system: CAKI-1 renal
[32] = system: KM12 colon
[33] = system: OVCAR-3 ovarian
[34] = system: HT29 colon
[35] = system: NCI-H226 lung
[36] = system: MDA-MB-435
[37] = system: NCI/ADR-RES ovarian
[38] = system: SF-268 CNS
[39] = system: 786-0 renal
[40] = system: SNB-19 CNS
[41] = system: DU-145 prostate
[42] = system: NCI-H23 lung
[43] = system: OVCAR-5 ovarian
[44] = system: HCT-116 colon
[45] = system: PC-3 prostate
[46] = system: MCF7 breast
[47] = system: HOP-62 NSCLC
[48] = system: U251 CNS
[49] = system: A498 renal
[50] = system: OVCAR-4 ovarian
[51] = system: UACC-257 melanoma
[52] = system: MOLT-4 leukemia
[53] = system: HL-60(TB) leukemia
[54] = system: MDA-MB-231 breast
[55] = system: NCI-H522 lung
[56] = system: IGROV1 ovarian
[57] = system: SK-MEL-2 melanoma
[58] = system: UO-31 renal

## O=C(Nc1cc(Cl)ccc1O)c1ccccc1Nc1ccnc(C(F)(F)F)c1
[1]
  GI50: 2.62 µM
  TGI: 8.71 µM
[2]
  GI50: 2.83 µM
  TGI: 11.6 µM
[3]
  GI50: 3.12 µM
  TGI: 9.63 µM
[4]
  GI50: 3.38 µM
  TGI: 13.1 µM
[5]
  GI50: 2.92 µM
  TGI: 10.4 µM
[6]
  GI50: 2.1 µM
  TGI: 4.27 µM
[7]
  GI50: 3.15 µM
  TGI: 11.7 µM
[8]
  GI50: 2.17 µM
  TGI: 6.55 µM
[9]
  GI50: 2.58 µM
  TGI: 8.72 µM
[10]
  GI50: 2.51 µM
  TGI: 10 µM
[11]
  GI50: 2.99 µM
  TGI: 9.92 µM
[12]
  GI50: 3.65 µM
  TGI: > 100 µM
[13]
  GI50: 2.84 µM
  TGI: 10.7 µM
[14]
  GI50: 2.46 µM
  TGI: 7.95 µM
[15]
  GI50: 3 µM
  TGI: 7.41 µM
[16]
  GI50: 3.43 µM
  TGI: 16.3 µM
[17]
  GI50: 3.35 µM
  TGI: > 100 µM
[18]
  GI50: 2.5 µM
  TGI: 6.78 µM
[19]
  GI50: 3.2 µM
  TGI: 22.7 µM
[20]
  GI50: 2.21 µM
  TGI: 6.23 µM
[21]
  GI50: 2.7 µM
  TGI: 9.16 µM
[22]
  GI50: 3.55 µM
  TGI: > 100 µM
[23]
  GI50: 2.42 µM
  TGI: 8.54 µM
[24]
  GI50: 3 µM
  TGI: 12.2 µM
[25]
  GI50: 2.2 µM
  TGI: 7.39 µM
[26]
  GI50: 2.47 µM
  TGI: 8.5 µM
[27]
  GI50: 4.72 µM
  TGI: 16.8 µM
[28]
  GI50: 1.94 µM
  TGI: 7.43 µM
[29]
  GI50: 2.77 µM
  TGI: 10.6 µM
[30]
  GI50: 2.38 µM
  TGI: 5.4 µM
[31]
  GI50: 2.24 µM
  TGI: 7.34 µM
[32]
  GI50: 2.74 µM
  TGI: 8.13 µM
[33]
  GI50: 1.7 µM
  TGI: 4.8 µM
[34]
  GI50: 3.27 µM
  TGI: 11.5 µM
[35]
  GI50: 2.11 µM
  TGI: 9.17 µM
[36]
  GI50: 3.33 µM
  TGI: 11.3 µM
[37]
  GI50: 3.06 µM
  TGI: 9.29 µM
[38]
  GI50: 3.13 µM
  TGI: 13.2 µM
[39]
  GI50: 3.28 µM
  TGI: 8.8 µM
[40]
  GI50: 2.88 µM
  TGI: 10.3 µM
[41]
  GI50: 3.69 µM
  TGI: 14.1 µM
[42]
  GI50: 2.63 µM
  TGI: 9.19 µM
[43]
  GI50: 5.6 µM
  TGI: 23.3 µM
[44]
  GI50: 2.2 µM
  TGI: 5.63 µM
[45]
  GI50: 2.84 µM
  TGI: > 100 µM
[46]
  GI50: 2.75 µM
  TGI: 11.6 µM
[47]
  GI50: 2.16 µM
  TGI: 5.21 µM
[48]
  GI50: 4.91 µM
  TGI: > 100 µM
[49]
  GI50: 2.25 µM
  TGI: 6.4 µM
[50]
  GI50: 2.29 µM
  TGI: 13.2 µM
[51]
  GI50: 2.85 µM
  TGI: 8.5 µM
[52]
  GI50: 2.52 µM
  TGI: 6.94 µM
[53]
  GI50: 1.46 µM
  TGI: 4.36 µM
[54]
  GI50: 2.12 µM
  TGI: 5.19 µM

## CCN(CC)CCN1c2nc3ccccc3cc2Sc2cc3ccccc3nc21
[1]
  GI50: 1.64 µM
  TGI: 3.38 µM
[3]
  GI50: 1.84 µM
  TGI: 4.73 µM
[4]
  GI50: 2.34 µM
  TGI: 6.12 µM
[5]
  GI50: 4.49 µM
  TGI: 17.9 µM
[6]
  GI50: 1.36 µM
  TGI: 2.69 µM
[7]
  GI50: 1.53 µM
  TGI: 2.99 µM
[8]
  GI50: 1.32 µM
  TGI: 6.22 µM
[9]
  GI50: 0.869 µM
  TGI: 3.2 µM
[55]
  GI50: 1.65 µM
  TGI: 4.1 µM
[10]
  GI50: 1.77 µM
  TGI: 4.37 µM
[11]
  GI50: 1.52 µM
  TGI: 2.95 µM
[12]
  GI50: 3.04 µM
  TGI: > 100 µM
[13]
  GI50: 2.28 µM
  TGI: 12.2 µM
[14]
  GI50: 2.83 µM
  TGI: 12.2 µM
[15]
  GI50: 1.69 µM
  TGI: 3.72 µM
[16]
  GI50: 2.43 µM
  TGI: 8.15 µM
[17]
  GI50: 2.58 µM
  TGI: 9.29 µM
[18]
  GI50: 1.56 µM
  TGI: 3.45 µM
[19]
  GI50: 1.57 µM
  TGI: 3.03 µM
[20]
  GI50: 3.5 µM
  TGI: 12.9 µM
[21]
  GI50: 1.6 µM
  TGI: 3.16 µM
[22]
  GI50: 1.58 µM
  TGI: 3.76 µM
[23]
  GI50: 1.73 µM
  TGI: 4.61 µM
[56]
  GI50: 0.473 µM
  TGI: 2.48 µM
[24]
  GI50: 1.8 µM
  TGI: 3.49 µM
[25]
  GI50: 1.57 µM
  TGI: 3.12 µM
[26]
  GI50: 3.09 µM
  TGI: 12.5 µM
[27]
  GI50: 3.54 µM
  TGI: 8.74 µM
[28]
  GI50: 1 µM
  TGI: 2.97 µM
[29]
  GI50: 3.78 µM
  TGI: 18 µM
[30]
  GI50: 1.35 µM
  TGI: 2.85 µM
[31]
  GI50: 1.8 µM
  TGI: 6.11 µM
[32]
  GI50: 2.01 µM
  TGI: 5 µM
[33]
  GI50: 1.85 µM
  TGI: 4.9 µM
[34]
  GI50: 1.21 µM
  TGI: 3.06 µM
[35]
  GI50: 3.31 µM
  TGI: 14.2 µM
[36]
  GI50: 1.8 µM
  TGI: 3.97 µM
[37]
  GI50: 2.5 µM
  TGI: 7.83 µM
[38]
  GI50: 3.34 µM
  TGI: 13 µM
[39]
  GI50: 2.17 µM
  TGI: 4.64 µM
[57]
  GI50: 1.69 µM
  TGI: 4.4 µM
[40]
  GI50: 3.03 µM
  TGI: 11.9 µM
[58]
  GI50: 0.97 µM
  TGI: 5.09 µM
[41]
  GI50: 3.59 µM
  TGI: 11.3 µM
[42]
  GI50: 2.51 µM
  TGI: 10.6 µM
[43]
  GI50: 1.65 µM
  TGI: 4.55 µM
[44]
  GI50: 1.4 µM
  TGI: 2.78 µM
[45]
  GI50: 1.71 µM
  TGI: 4.84 µM
[46]
  GI50: 0.75 µM
  TGI: 2.1 µM
[47]
  GI50: 1.42 µM
  TGI: 3.06 µM
[48]
  GI50: 1.95 µM
  TGI: 4.48 µM
[49]
  GI50: 3.08 µM
  TGI: 8.62 µM
[50]
  GI50: 2.74 µM
  TGI: 13.4 µM
[51]
  GI50: 2.04 µM
  TGI: 4.06 µM
[52]
  GI50: 2.31 µM
  TGI: 6.6 µM
[53]
  GI50: 1.99 µM
  TGI: 4.21 µM
[54]
  GI50: 1.58 µM
  TGI: 4.03 µM
